The values that follow come from US4656166A, “Antibiotic compounds derived from cephalosporins, process for their production and pharmaceutical compositions” (Sanofi, priority 1983, dated 1987).

The structures appear in SMILES notation. Converted amounts (≈) assume the structure as drawn. Where two headings read alike, the source gives them in different places.

The test system of assay [1] is Escherichia coli SOL 90. Kind of assay: MIC, in vitro dilution method, Escherichia coli SOL 90 (Table III). The class given is cell-based. As to conditions: SOL90; Escherichia coli SOL 90; dilution method; read-out: MIC. In short, it runs like this:
(§1)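 Compounds are serially diluted in vitro and tested for bacteriostatic effect on each Gram-negative strain; the lowest inhibiting concentration is recorded as MIC (μg/ml).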

Another assay deals with Citrobacter RL 49. Description: MIC, in vitro dilution method, Citrobacter RL 49 (Table III). The class given is cell-based. As to conditions: RL49. The method, boiled down:
as §1

Assay [2] relates to Proteus vulgaris RL 99 bis. Description: MIC, in vitro dilution method, Proteus vulgaris RL 99 bis (Table III). As to conditions: RL99BIS. The class given is cell-based. The method, boiled down:
as §1

The next assay deals with Serratia RL 72. Kind of assay: MIC, in vitro dilution method, Serratia RL 72 (Table III). As to conditions: RL72. The class given is cell-based. The method, boiled down:
as §1

For assay [3], the system named is Klebsiella RO 30. Description: MIC, in vitro dilution method, Klebsiella RO 30 (Table III). As to conditions: RO30. The class given is cell-based. The method, boiled down: as §1
A further assay concerns Enterobacter RO 154. Kind of assay: MIC, in vitro dilution method, Enterobacter RO 154 (Table III). The class given is cell-based. The settings on record: RO154; Enterobacter RO 154; dilution method; read-out: MIC. In short, it runs like this: as §1
The next assay has as its system Pseudomonas RL 112. Kind of assay: MIC, in vitro dilution method, Pseudomonas RL 112 (Table III). The settings on record: RL112. The class given is cell-based. The method, boiled down:
as §1

In the next assay the test system is Escherichia coli 255. Description: MIC on beta-lactamase producing strain Escherichia coli 255 (Table IV). The class given is cell-based. The procedure:
(§2) To evaluate the stability of these products towards beta-lactamases, their MIC was determined on isogenic strains producing and not producing beta-lactamases.
(§3) The results are expressed in μg/ml in Table IV.

The next assay deals with Escherichia coli 255/L.7. Description: MIC on strain not producing beta-lactamase, Escherichia coli 255/L.7 (Table IV). As to conditions: Escherichia coli 255/L.7 *, not producing beta-lactamases; read-out: MIC. The class given is cell-based. The procedure:
as §2, §3

The test system of assay [4] is Serrtia liquefaciens SL/326 A. Description: MIC on beta-lactamase producing strain Serratia liquefaciens SL/326 A (Table IV). In kind it is cell-based. On the procedure:
as §2, §3

For assay [5], the system named is Serrtia liquefaciens SL 1326 S. Kind of assay: MIC on strain not producing beta-lactamase, Serratia liquefaciens SL 1326 S (Table IV). In kind it is cell-based. The settings on record: SL1326S, not producing beta-lactamases. On the procedure: as §2, §3
For assay [6], the system named is Proteus vulgaris GN 76/C.1. Description: MIC on beta-lactamase producing strain Proteus vulgaris GN 76/C.1 (Table IV). The class given is cell-based. The settings on record: GN76. On the procedure: as §2, §3
Assay [7] relates to Proteus vulgaris GN 76/C.1/3. Kind of assay: MIC on strain not producing beta-lactamase, Proteus vulgaris GN 76/C.1/3 (Table IV). In kind it is cell-based. As to conditions: GN76, not producing beta-lactamases. The procedure:
as §2, §3

In assay [8] the test system is Escherichia coli SOL 90. Description: septicemic model of the mouse, Escherichia coli SOL 90 (Table V). The class given is in vivo. As to conditions: SOL90, sc, 96 h, mouse septicemia, sub-cutaneous, 1 to 5 hours after inoculation, 4 days observation, read-out: DE50 (the source's name). On the procedure: The therapeutic effectiveness of the products was determined on the septicemic model of the mouse. the septicemia was initiated by the intraperitoneal innoculation of 0.5 ml of a suitable dilution of a suspension of the Escherichia coli SOL 90 strain. The products were administered in solution in a phosphate buffer pH 7.0 in a volume of 0.2 ml sub-cutaneously to batches of 10 mice, 1 to 5 hours after innoculation of the microorganism. After 4 days of observation in the course of which the mortality was noted, the 50% effective doses (DE 50) were calculated by the Muench and Reed method.

Assay [9] concerns Klebsiella RO 30. Kind of assay: septicemic model of the mouse, Klebsiella RO 30 (Table V). The class given is in vivo. The settings on record: RO30, sc, 96 h, mouse septicemia, sub-cutaneous, 4 days observation, read-out: DE50 (the source's name).
Where [10] appears, read: Klebsiella RO 30, dilution method, read-out: MIC.
Where [11] appears, read: Escherichia coli 255, producing beta-lactamases, read-out: MIC.
The mark [12] stands for this setting: Proteus vulgaris GN 76/C.1, producing beta-lactamases, read-out: MIC.
The mark [13] stands for this setting: Citrobacter RL 49, dilution method, read-out: MIC.

In the case of `NCC(=O)Nc1ccc(C(=O)OCC2=C(C(=O)O)N3C(=O)C(NC(=O)C(=NOC4(C(=O)O)CCC4)c4csc(N)n4)C3[S+]([O-])C2)cc1` (stereo not drawn) [42 548], the MIC – broadly, the least concentration at which growth counts as inhibited – in the assay with Escherichia coli SOL 90 [1] is 0.25 µg/mL (≈ 0.362 µM); in the assay on Citrobacter RL 49 (Citrobacter) it was not above 0.125 µg/mL; in [2] (Proteus vulgaris), not above 0.125 µg/mL; in the assay on Serratia RL 72, 0.5 µg/mL (≈ 0.725 µM); against Klebsiella RO 30 [3] (Klebsiella), 0.125 µg/mL (≈ 0.181 µM); in the assay on Enterobacter RO 154, 0.25 µg/mL (≈ 0.362 µM). The minimum inhibitory concentration (MIC) in the assay on Pseudomonas RL 112 was 2 µg/mL (≈ 2.9 µM); against Escherichia coli 255 (Escherichia coli, 255), 0.625 µg/mL (≈ 0.906 µM); in the assay with Escherichia coli 255/L.7 it was not above 0.0312 µg/mL; in assay [4] it was 0.125 µg/mL (≈ 0.181 µM); in assay [5], not above 0.0312 µg/mL; in assay [6] (Proteus vulgaris), 0.0625 µg/mL (≈ 0.0906 µM). In assay [7], this compound yielded a minimum inhibitory concentration (MIC) of 0.0625 µg/mL (≈ 0.0906 µM).
Regarding `CC(C)(ON=C(C(=O)NC1C(=O)N2C(C(=O)O)=C(COC(=O)C3CCN(C(=O)CN)CC3)C[S+]([O-])C12)c1csc(N)n1)C(=O)O` (stereo not drawn) [42 549], the MIC is 0.25 µg/mL (≈ 0.373 µM) in the assay with Escherichia coli SOL 90 [1]; not above 0.125 µg/mL in the assay on Citrobacter RL 49 (Citrobacter); not above 0.125 µg/mL in assay [2] (Proteus vulgaris); 0.5 µg/mL (≈ 0.747 µM) in the assay on Serratia RL 72; 0.25 µg/mL (≈ 0.373 µM) with Klebsiella RO 30 [3] (setting [10]); 0.25 µg/mL (≈ 0.373 µM) in the assay with Enterobacter RO 154. Further, the MIC is 4 µg/mL (≈ 5.97 µM) against Pseudomonas RL 112; 0.125 µg/mL (≈ 0.187 µM) with Escherichia coli 255 (setting [11]); 0.0625 µg/mL (≈ 0.0933 µM) with Escherichia coli 255/L.7; 0.125 µg/mL (≈ 0.187 µM) in assay [4]; not above 0.0312 µg/mL in assay [5]; not above 0.0312 µg/mL in assay [6] (Proteus vulgaris). Also, the MIC in assay [7] turned out to be 0.0625 µg/mL (≈ 0.0933 µM).
As for `CC(C)(ON=C(C(=O)NC1C(=O)N2C(C(=O)O)=C(CSC(=O)C3CCNCC3)C[S+]([O-])C12)c1csc(N)n1)C(=O)O` (stereo not drawn) [compound 41973], the minimal inhibitory concentration (MIC) is 0.25 µg/mL (≈ 0.398 µM) in the assay on Escherichia coli 255 (setting [11]); 0.25 µg/mL (≈ 0.398 µM) with Escherichia coli 255/L.7; 0.25 µg/mL (≈ 0.398 µM) in [4]; not above 0.12 µg/mL in assay [5]; 0.5 µg/mL (≈ 0.795 µM) in assay [6] (setting [12]). In addition, the ED50 came out at 0.22 mg/kg with Escherichia coli SOL 90 [8] and 0.4 mg/kg with Klebsiella RO 30 [9].
As to `CC(C)(ON=C(C(=O)NC1C(=O)N2C(C(=O)O)=C(CSC(=O)c3ccc(CN)cc3)C[S+]([O-])C12)c1csc(N)n1)C(=O)O` (stereo not drawn) [compound 42119], the minimum inhibitory concentration (MIC) with Escherichia coli SOL 90 [1] was 0.5 µg/mL (≈ 0.768 µM); in the assay on Citrobacter RL 49 (setting [13]), 0.25 µg/mL (≈ 0.384 µM); in [2] (Proteus vulgaris RL 99 bis, dilution method, read-out: MIC) it was not above 0.12 µg/mL; against Serratia RL 72, 4 µg/mL (≈ 6.15 µM); in the assay with Klebsiella RO 30 [3] (setting [10]), 0.5 µg/mL (≈ 0.768 µM); in the assay on Enterobacter RO 154, 8 µg/mL (≈ 12.3 µM). Moreover, the MIC against Pseudomonas RL 112 is 8 µg/mL (≈ 12.3 µM); in the assay with Escherichia coli 255 (setting [11]), 0.25 µg/mL (≈ 0.384 µM); in the assay on Escherichia coli 255/L.7, 0.12 µg/mL (≈ 0.184 µM); in assay [4] it was 0.25 µg/mL (≈ 0.384 µM); in assay [5], not above 0.06 µg/mL; in assay [6] (setting [12]), 0.12 µg/mL (≈ 0.184 µM). In the assay with Escherichia coli SOL 90 [8], the ED50 stood at 0.16 mg/kg.
On to `CNCc1ccc(C(=O)SCC2=C(C(=O)O)N3C(=O)C(NC(=O)C(=NOC(C)(C)C(=O)O)c4csc(N)n4)C3[S+]([O-])C2)cc1` (stereo not drawn) [compound 42533], for which the MIC was 0.5 µg/mL (≈ 0.752 µM) in the assay on Escherichia coli SOL 90 [1]; 0.25 µg/mL (≈ 0.376 µM) in the assay with Citrobacter RL 49 (setting [13]); not above 0.125 µg/mL in assay [2] (Proteus vulgaris); 1 µg/mL (≈ 1.5 µM) with Serratia RL 72; 0.25 µg/mL (≈ 0.376 µM) in the assay with Klebsiella RO 30 [3] (setting [10]); 0.5 µg/mL (≈ 0.752 µM) in the assay on Enterobacter RO 154. Besides, the minimal inhibitory concentration (MIC) in the assay with Pseudomonas RL 112 was 8 µg/mL (≈ 12 µM); with Escherichia coli 255 (setting [11]) it was 0.125 µg/mL (≈ 0.188 µM); with Escherichia coli 255/L.7 it was 0.0625 µg/mL (≈ 0.094 µM); in assay [4] it was 0.125 µg/mL (≈ 0.188 µM); in assay [5], not above 0.0312 µg/mL; in assay [6] (Proteus vulgaris), 0.0625 µg/mL (≈ 0.094 µM). Also, the MIC in [7] was found to be 0.125 µg/mL (≈ 0.188 µM).
Consider `Cc1c(CN)cccc1C(=O)SCC1=C(C(=O)O)N2C(=O)C(NC(=O)C(=NOC(C)(C)C(=O)O)c3csc(N)n3)C2[S+]([O-])C1` (stereo not drawn) [compound 42535], for which the MIC in the assay with Escherichia coli SOL 90 [1] is 0.5 µg/mL (≈ 0.752 µM); in the assay with Citrobacter RL 49 (setting [13]) it was 0.25 µg/mL (≈ 0.376 µM); in assay [2] (Proteus vulgaris) it was not above 0.125 µg/mL; in the assay with Serratia RL 72 it was 1 µg/mL (≈ 1.5 µM); in the assay on Klebsiella RO 30 [3] (setting [10]) it was 0.25 µg/mL (≈ 0.376 µM); in the assay on Enterobacter RO 154 it was 0.5 µg/mL (≈ 0.752 µM). The MIC in the assay with Pseudomonas RL 112 was 8 µg/mL (≈ 12 µM); in the assay with Escherichia coli 255 (setting [11]), 0.125 µg/mL (≈ 0.188 µM); in the assay on Escherichia coli 255/L.7, not above 0.0312 µg/mL; in assay [4], 0.0625 µg/mL (≈ 0.094 µM); in [5], 0.125 µg/mL (≈ 0.188 µM); in assay [6] (Proteus vulgaris) it was 0.0625 µg/mL (≈ 0.094 µM). Further, inhibition of growth in assay [7] (MIC) required 0.125 µg/mL (≈ 0.188 µM).
